This note sets out measurements from BindingDB's records for doi:10.1021/acsmedchemlett.8b00255 (2018).

In general, koff refers to a measure of how fast the partners let go of each other.

The assay deals with T1, Interleukin-23 receptor (Homo sapiens, UniProt Q5VWK5).
T1 sequence (Q5VWK5 whole entry): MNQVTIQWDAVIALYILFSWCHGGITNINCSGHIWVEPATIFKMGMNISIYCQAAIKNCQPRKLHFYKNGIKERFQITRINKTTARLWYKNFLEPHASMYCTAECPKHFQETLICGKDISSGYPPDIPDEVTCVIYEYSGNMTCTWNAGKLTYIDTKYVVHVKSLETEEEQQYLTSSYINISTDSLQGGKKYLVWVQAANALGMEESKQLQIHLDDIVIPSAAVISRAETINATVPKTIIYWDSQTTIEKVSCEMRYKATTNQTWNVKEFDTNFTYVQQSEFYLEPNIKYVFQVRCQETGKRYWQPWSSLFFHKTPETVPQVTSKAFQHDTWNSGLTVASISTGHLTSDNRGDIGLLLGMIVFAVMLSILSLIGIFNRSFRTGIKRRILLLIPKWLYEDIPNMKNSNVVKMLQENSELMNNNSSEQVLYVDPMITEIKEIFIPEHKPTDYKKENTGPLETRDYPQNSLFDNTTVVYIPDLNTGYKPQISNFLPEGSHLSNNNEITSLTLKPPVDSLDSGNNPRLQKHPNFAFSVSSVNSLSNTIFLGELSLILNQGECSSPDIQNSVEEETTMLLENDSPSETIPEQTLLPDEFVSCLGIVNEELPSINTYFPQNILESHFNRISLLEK
Nature of the assay: Binding affinity to recombinant human flag/His-tagged IL-23R (1 to 353 residues) expressed in HEK293F cells assessed as dissociation rate constant measured over 90 secs by surface plasmon resonance assay. (Surface plasmon resonance follows binding to a sensor surface in real time, without labels.)

With `CC(=O)N[C@H]1CCSC[C@@H](C(=O)N[C@@H](Cc2ccc(OCCN)cc2)C(=O)N[C@@H](Cc2c[nH]c3ccccc23)C(=O)N[C@@](C)(CCCCN)C(=O)N[C@@H](CCC(=O)O)C(=O)N[C@@H](CC(N)=O)C(=O)NCC(N)=O)NC(=O)[C@H](CCC(N)=O)NC(=O)[C@H](Cc2c[nH]c3ccccc23)NC(=O)[C@H]([C@@H](C)O)NC(=O)[C@H](CCC(N)=O)NC1=O`, the koff is 0.0274 s⁻¹.
